The text below walks through data of US20040132700A1, “Use of fluticasone propionate in the treatment of diseases ameliorated by enhancement of epithelial madrix adhesion such as asthma cystic fibrosis and influenza” (priority 2001, published 2004).

Assay type in all cases: cell-based
Assay [1] deals with 16HBe14o- cells. Kind of assay: human sputum elastase (HSE) induced hole formation and loss of TER in 16HBe14o- monolayers. As to the method: (§1) 16HBe14o- cells were grown on transwell clear membranes until they formed an electrically tight monolayer. In the absence of serum, the cells were treated for 24 hours with FP or vehicle. 5 μg/ml human sputum elastase (HSE) or 5 μg/ml Pseudomonas Aeruginosa elastase (PAE) was then added to the basolateral surface of the cells. The transepithelial resistance (TER) and the morphology of the monolayers were monitored over the next 24 hours.
(§2) When HSE was added to the basal surface of the both the 16HBE14o- and primary bronchial epithelial cells it caused a lowering of TER and formation of holes in the cell monolayers. […] When the cells were treated with PAE, the monolayer detached from the underlying membrane as a complete sheet. It took 4 hours for all of the control cultures treated with PAE to become detached whereas it took 8 hours for all of the FP pretreated cultures to become detached.

For assay [2], the system named is human primary bronchial epithelial cells. Kind of assay: human sputum elastase (HSE) induced hole formation and loss of TER in primary bronchial epithelial cells. On the procedure: as §1, §2
Assay [3] has as its system 16HBe14o- cells. Kind of assay: Pseudomonas aeruginosa elastase (PAE) induced detachment and loss of TER of 16HBe14o- monolayers. As to the method: as §1, §2
For assay [4], the system named is 16HBE epithelial cells. Nature of the assay: mechanical wounding of confluent 16HBE epithelial cultures, wound area. The conditions noted are these: 16HBE cultures, various steroid concentrations for 24 h or 48 h before wounding (FIG. 7), versus control cultures. On the procedure: To study the effect of FP on protection from mechanical damage, multiple concentric wounds were generated in multiwell plates, thus achieving a large total wound length for analysis. 10^4 cells in 0.2 ml of growth medium containing 5% steroid-free FCS were added to wells in 96 well plates and cultured until confluent with regular changes of growth medium. Cultures were incubated for a further 24 h or 48 h before wounding. After wounding, cultures were rinsed in PBS, fixed at room temperature in methanol/acetone (50/50), air dried and then stained with 0.1% crystal violet. Wound areas were determined using a Leica Q550IW image analysis system. […] The steroid effects were obvious at 24 h, but even more marked at 48 h. At the latter time point, control wound size had increased, whilst the highest dose of either steroid had reduced wound size, compared to wounds after 24 h exposure. […] In the control cultures, tearing of the epithelium from the dish surface beyond the area of direct contact with the needle occurs producing a wound width that is much greater than the needle width. In contrast, in steroid treated cultures, wounds become progressively smaller with increasing steroid concentration until the damage area is limited to the epithelium that has had direct contact with the needle.

With `CCC(=O)O[C@]1(C(=O)SCF)[C@H](C)C[C@H]2[C@@H]3C[C@H](F)C4=CC(=O)C=C[C@]4(C)[C@@]3(F)[C@@H](O)C[C@@]21C` [FP, S-fluoromethyl 6α, 9β-difluoro-11β-hydroxy-16α-methyl-17α-propionyloxy-3-oxoandrosta-1,4-diene-17β-carbothiate], the “rate of hole formation in cell monolayer” value in assay [1] (16HBE14o- cells, 24 h FP pretreatment, 5 μg/ml HSE basolateral, monitored over 24 hours) was “reduction in the rate of hole formation”; in assay [2] (primary bronchial epithelial cells, FP pretreatment, HSE added to basal surface), “reduction in the rate of hole formation”. In addition, the “loss of TER induced by HSE” value in assay [1] (16HBe14o- cells, after 24 hour incubation with HSE (FIG. 2)) is recorded as “protective effect”. Further, the “loss of TER induced by human sputum elastase” value in assay [2] (primary bronchial epithelial cells (FIG. 3)) is “protective effect”. The “loss of TER induced by pseudomonas elastase” value in assay [3] (16HBe14o- cells (FIG. 5)) is listed as “protective effect”. Also, the “time for all cultures to become detached from the underlying membrane” value in assay [3] (16HBe14o- cells, 24 h FP pretreatment, 5 μg/ml PAE basolateral, control cultures 4 hours) was 8 h. Moreover, the “wound size (wound area)” value in assay [4] was “dose-related decrease in wound size”.
